Assay results: PMC7481357, “N-terminal Myristoylation Enhanced the Antimicrobial Activity of Antimicrobial Peptide PMAP-36PW” (Frontiers in Cellular and Infection Microbiology, 2020)
Residues, ends and D or L forms follow the SMILES beside them. *: point of attachment. Myristoyl = CCCCCCCCCCCCCC(=O)*

Legend:
[1] = system: S. aureus ATCC 25923 and P. aeruginosa GIM 1.551; experiment: pH stability testing (pH 2-13, then inhibition zone assay); format: cell-based, Staphylococcus aureus; Pseudomonas aeruginosa; settings: for pH range of stable antimicrobial activity: peptides treated at pH 2–13, inhibition zone, 10 μg, n = 5
Description: For stability test, the Myr-36PW and peptides were treated with pH 2–13, and PBS buffer with different pH values was used as a control (Wang et al., [2019]). Inhibition zone assay was performed against S. aureus ATCC 25923 and P. aeruginosa GIM 1.551. The inhibition zone diameters of peptides (10 μg, 1 μg/μL) were measured after incubation for 18 h at 37°C, and the inhibition curve was drawn.
Figure 4 PH stability determination of Myr-36PW. PH stability test was performed using Myr-36PW and its analogs treated with different pH levels (2–13) through disk diffusion method. (A) (S. aureus ATCC 25923) and (B) (P. aeruginosa GIM 1.551) show the pH stability curve of PMAP-36, PMAP-36PW, and Myr-36PW. The diameter of the standard disk is 6 mm. Data represent the mean ± SD (n = 5).

[2] = system: P. aeruginosa GIM 1.551; format: cell-based, Pseudomonas aeruginosa; settings: GIM 1.551, 1 h
Description: The effects of abiotic factors on the antibacterial activity of Myr-36PW were investigated by MIC assay (Xi et al., [2013]; Zhong et al., [2019]). S. aureus ATCC 25923 and P. aeruginosa GIM 1.551 overnight cultures were diluted to 1 × 10^6 CFU/mL, and the MICs of peptides in MHB with different concentration of physiological salts (150 mM NaCL, 2 mM CaCL2) were determined. And after the peptides incubated in 10% mice serum for 1 h at 37°C, MICs of peptides against S. aureus ATCC 25923 and P. aeruginosa GIM 1.551 were determined. The MICs in MHB in the absence of physiological salts and serum were used as the control group.
Salt and serum stability in vitro were indicated by MIC assay. The concentrations of NaCl and CaCl2 were physiological concentration. 10% mice serum was inactivated by heat treatment for 15 min at 60 ℃。The control group was measured in the absence of physiological salts or serum in MHB.

[3] = Self-assembly of the peptide; format: physicochemical; settings: stated in discussion, method not given
[4] = system: S. aureus ATCC 25923, S. typhimurium SL 1344, and P. aeruginosa GIM 1.551; experiment: Biofilm eradication assay (crystal violet and colony count); format: cell-based; settings: 128 μg/mL, n = 5
Description: The biofilm-eradicating ability of Myr-36PW was determined against S. aureus ATCC 25923, S. typhimurium SL 1344, and P. aeruginosa GIM 1.551 (Chen et al., [2018]; de Breij et al., [2018]). In brief, 200 μL of bacterial dilution (1 × 10^6 CFU/mL) was added into a 96-well plate and incubated for 24 h at 37°C to form a biofilm, which was washed three times with PBS. Subsequently, 200 μL of peptides at 128 μg/mL were added to the wells. After incubation for 1 h at 37°C, the OD of each well was measured at 620 nm by crystal violet staining. The wells were gently washed three times with PBS after 1 h incubation to evaluate the killing effect of Myr-36PW against bacteria in the biofilm. Afterward, 100 μL of suspension was serially diluted and spread on LB agar plates, and bacterial colony was measured.
Figure 6 Biofilm inhibition and eradication of Myr-36PW. (A–C) Inhibition of biofilm formation by Myr-36PW. (D) Eradication of preformed biofilm by Myr-36PW. (E) Killing effect of Myr-36PW against biofilm bacteria. Inhibition rate % = [1 – OD620 nm(peptides)/OD620 nm(bacteria)] × 100%. Biofilm mass % = OD620 nm(peptides)/OD620 nm(control) × 100%. The control group was bacterial culture without peptides. Data represent the mean ± SD (n = 5).

[5] = system: P. aeruginosa GIM 1.551; experiment: Wound infection model; format: in vivo, BALB/c mice; settings: 20 μL, 1 μg/μL, once a day for 7 days
Description: Sixty mice with ten mice in each group were used in the experiment. Infection and treatment were performed as previously described (Hong et al., [2017]). The mouse dorsal region with a diameter of 3.0 cm was treated with hair pusher, and a full-thickness 2.0 cm diameter wound was created by excising the skin and infected by direct seeding with P. aeruginosa GIM 1.551 (1 × 10^8 CFU/mL, 50 μL). The wound was then covered with sterile gauze to prevent cross contamination. Treatment was initiated at 24 h after bacterial inoculation. The mice with no infection and treatment was used as a blank control, those provided with PBS (20 μL) as the negative control group, those administered with ampicillin sodium (20 μL, 1 μg/μL) as the positive control group, and the remaining were those treated with the three peptides (20 μL, 1 μg/μL) once a day for 7 days as the treatment groups. The mice were sacrificed after the 7 day treatment. Changes in the wound were observed, and the infected sections of skin were aseptically contained, homogenized, and serially diluted. Bacterial CFU counts were obtained.
Figure 11 Treatment value of wound by Myr-36PW in vivo. A 2 cm wound was cut with a knife and directly injected with P. aeruginosa GIM 1.551. (A) Wound changes of mice after 7 days treatment. (B) Bacterial CFU in the wound area treated for 7 days under different experimental conditions. AS is ampicillin sodium. Data represent the mean Log (CFU) ± SD of five individual experiments. *P < 0.05 and **P < 0.01, compared with PBS. ^#P < 0.05, compared with PMAP-36PW.

CCCCCCCCCCCCCC(=O)NCC(=O)NCC(=O)N[C@@H](CCCNC(=N)N)C(=O)N[C@@H](Cc1ccccc1)C(=O)N[C@@H](CCCNC(=N)N)C(=O)N[C@@H](CCCNC(=N)N)C(=O)N[C@@H](CC(C)C)C(=O)N[C@@H](CCCNC(=N)N)C(=O)N[C@@H](CCCCN)C(=O)N[C@@H](CCCCN)C(=O)N[C@H](C(=O)N[C@@H](CCCNC(=N)N)C(=O)N[C@@H](CCCCN)C(=O)N[C@@H](CCCNC(=N)N)C(=O)N[C@@H](CC(C)C)C(=O)N[C@@H](CCCCN)C(=O)N[C@@H](CCCCN)C(=O)N[C@H](C(=O)NCC(=O)N[C@@H](CCCCN)C(=O)N[C@H](C(=O)N[C@@H](CC(C)C)C(=O)N[C@@H](CCCCN)C(=O)N[C@@H](Cc1c[nH]c2ccccc12)C(=O)N[C@H](C(=O)N[C@@H](Cc1c[nH]c2ccccc12)C(=O)N[C@@H](Cc1c[nH]c2ccccc12)C(=O)N[C@H](C(=O)N[C@H](C(=O)NCC(=O)N[C@@H](CO)C(=O)N[C@H](C(=O)N1CCC[C@H]1C(=O)N[C@@H](CC(C)C)C(=O)NCC(=O)N[C@@H](CS)C(=O)NCC(=O)O)[C@@H](C)CC)C(C)C)[C@@H](C)CC)[C@@H](C)CC)C(C)C)[C@@H](C)CC)[C@@H](C)O [Myr-36PW] (Myristoyl-GGRFRRLRKKTRKRLKKIGKVLKWIWWIVGSIPLGCG-OH; C-terminus assumed)
pH range of stable antimicrobial activity ([1]; against P. aeruginosa GIM 1.551): 5–11 pH | pH range of stable antimicrobial activity ([1]; against S. aureus ATCC 25923): 5–9 pH | Antimicrobial activity at pH 2 ([1]; inhibition zone, 10 μg peptide): higher than that of PMAP-36PW | Antimicrobial activity at pH 13 ([1]; inhibition zone, 10 μg peptide): disappeared | MICs, CaCl2 [2]: 0.5 µg/mL | MICs, Control [2]: 0.25 µg/mL | MICs, NaCl [2]: 0.25 µg/mL | MICs, Serum [2]: 0.5 µg/mL | Self-assembly [3]: not self-assembly | Eradication of preformed biofilm ([4]; 1 h at 37°C on 24 h biofilm, crystal violet OD 620 nm): only eradicated the preformed biofilm in Gram-negative bacteria | Killing effect against biofilm bacteria ([4]; 1 h at 37°C, colony count): bacterial killing effect except against S. aureus ATCC 25923 | Wound size [5]: significantly reduced | Bacterial CFU in the wound area ([5]; vs PBS group: PMAP-36PW P < 0.05, Myr-36PW and ampicillin sodium P < 0.01, n = 5): significantly reduced
